Several values for one entry are separate records, joined by “and”; a condition that tells them apart may be missing. Identical values can stand only once.
Columns and labels:
LogD = assay type: physicochemical; conditions: pH = 7.4
Pharmacokinetics [1] = assay type: in vivo; conditions: mouse
Pharmacokinetics [2] = assay type: in vivo; conditions: rat
Pharmacokinetics [3] = assay type: in vivo; conditions: dog
[4] = Projection of human PK parameters
[5] = Plasma concentration in CTG-1017 tumor-bearing mice; assay type: in vivo; conditions: Athymic Nude-Foxn1nu, mouse, po, 60 mg/kg p.o.
in vitro [6] = conditions: mouse, hepatocytes
in vitro [7] = conditions: rat, hepatocytes
in vitro [8] = conditions: dog, hepatocytes
in vitro [9] = conditions: human, hepatocytes
in vitro [10] = conditions: mouse, rat, dog, human, microsomes and hepatocytes
Microsome stability [11] = conditions: mouse
Microsome stability [12] = conditions: rat
Microsome stability [13] = conditions: dog
Microsome stability [14] = conditions: human
Plasma protein binding [15] = conditions: mouse
Plasma protein binding [16] = conditions: rat
Plasma protein binding [17] = conditions: dog
Plasma protein binding [18] = conditions: human
BT-20 = assay: OncoPanel Multiplexed Cytotoxicity Assay; assay type: cell-based
BT-549 = assay: OncoPanel Multiplexed Cytotoxicity Assay; assay type: cell-based
MDA-MB-231 = assay: OncoPanel Multiplexed Cytotoxicity Assay; assay type: cell-based
MT-3 = assay: OncoPanel Multiplexed Cytotoxicity Assay; assay type: cell-based
Hs 578T = assay: OncoPanel Multiplexed Cytotoxicity Assay; assay type: cell-based

CCC(CC)c1cc(N[C@H]2CC[C@H](N)C2)n2nccc2n1 [Compound 28, [(1S,3S)-3-[[5-(1-Ethylpropyl)pyrazolo[1,5-a]pyrimidin-4-ium-7-yl]amino]cyclopentyl]ammonium Dichloride]
logD (LogD): 0.9 | Vd,ss (i.v.) (Pharmacokinetics [1]; i.v. 1.0 mg/kg): 3.9 L/kg | AUC (p.o.) (Pharmacokinetics [1]; p.o. 20 mg/kg): 1700 ng·h/mL | Cmax (p.o.) (Pharmacokinetics [1]; p.o. 20 mg/kg): 501 ng/mL | T1/2 (i.v.) (Pharmacokinetics [2]; i.v. 2.0 mg/kg): 2.4 h | AUC (p.o.) (Pharmacokinetics [2]; p.o. 10 mg/kg): 3591 ng·h/mL | Cmax (p.o.) (Pharmacokinetics [2]; p.o. 10 mg/kg): 411 ng/mL | T1/2 (i.v.) (Pharmacokinetics [3]; i.v. 0.50 mg/kg): 4.7 h | Vd,ss (i.v.) (Pharmacokinetics [3]; i.v. 0.50 mg/kg): 4.5 L/kg | F (Pharmacokinetics [3]; p.o. […]): >100% | CLint scaled (Pharmacokinetics [3]; plasma, iv, 0.5 mg/kg, i.v. 0.50 mg/kg): 13.4 mL/min/kg | mean predicted human Vd,ss ([4]; 70 kg body weight, IVIVE and allometry): 6.0 L/kg | predicted human oral bioavailability ([4]; derived from nonclinical species): 75% | half-life ([4]; human, plasma, one-compartment, read-out: estimated human terminal half-life (converted)): ~35 h | concentration at 2 h ([5]; 2 h post-dose): 846 ng/mL and 2.9 µM | concentration at 8 h ([5]; 8 h post-dose): 73 ng/mL and 250 nM | CLint scaled (in vitro [6]): 44 mL/min/kg | CLint scaled (in vitro [7]): 62 mL/min/kg | half-life (in vitro [7]): 1.97 h | CLint scaled (in vitro [8]): 38 mL/min/kg | half-life (in vitro [8]): 3.25 h | CLint scaled (in vitro [9]): 1.6 mL/min/kg | half-life (in vitro [9]): 39 h | half-life (in vitro [10]): ≥ 2 h | Microsome stability (Microsome stability [11]): 87.4 % remaining 180 min | Microsome stability (Microsome stability [12]): 81.3 % remaining 180 min | Microsome stability (Microsome stability [13]): 68.8 % remaining 180 min | Microsome stability (Microsome stability [14]): 92.5 % remaining 180 min | PPB (Plasma protein binding [15]): 48 % bound | PPB (Plasma protein binding [16]): 41 % bound | PPB (Plasma protein binding [17]): 72 % bound | PPB (Plasma protein binding [18]): 38 % bound

CN[C@@H]1C[C@H]2O[C@@](C)([C@@H]1OC)n1c3ccccc3c3c4c(c5c6ccccc6n2c5c31)C(=O)NC4 [Staurosporine]
Apoptosis Emax (BT-20): 4.6 | Cell Count Activity Area (BT-20): 2.58 | G1/S cell cycle block (BT-20; BT-20, 72 h): 0.00581 µM | EC50 (BT-20; Homo sapiens, BT-20, 72 h, read-out: Cell Count EC50): 31.6 nM | GI50 (BT-20; Homo sapiens, BT-20, 72 h, read-out: Cell count GI50): 23.6 nM | Apoptosis Emax (BT-549): 6.9 | Cell Count Activity Area (BT-549): 4.39 | G1/S cell cycle block (BT-549; BT-549, 72 h): 0.00531 µM | GI50 (BT-549; Homo sapiens, BT-549, 72 h, read-out: Cell count GI50): 5.56 nM | Apoptosis Emax (MDA-MB-231): 5.32 | Cell Count Activity Area (MDA-MB-231): 5.26 | IC50 (MDA-MB-231; Homo sapiens, MDA-MB-231, 72 h, read-out: Cell count IC50): 1.69 nM | G1/S cell cycle block (MDA-MB-231; MDA-MB-231, 72 h): 0.0122 µM | Apoptosis Emax (MT-3): 10.32 | G1/S cell cycle block (MT-3; MT-3, 72 h): 0.0273 µM | GI50 (MT-3; MT-3, 72 h, read-out: Cell count GI50): 9.39 nM | Apoptosis Emax (Hs 578T): 6.48 | Cell Count Activity Area (Hs 578T): 4.99 | GI50 (Hs 578T; Homo sapiens, Hs-578T, 72 h, read-out: Cell count GI50): 1.45 nM | G1/S cell cycle block (Hs 578T; Hs 578T, 72 h): 0.000753 µM

— publication PMC10726352, “Discovery of KB-0742, a Potent, Selective, Orally Bioavailable Small Molecule Inhibitor of CDK9 for MYC-Dependent Cancers” (Journal of Medicinal Chemistry, 2023)
